Reference: a melting point compilation (Tetko et al.; mined from patent text by program, amines drawn as free bases though some values may be those of a salt)

Structure (SMILES)	melting point [°C]
COC(=O)c1ccccc1S(=O)(=O)NC(=O)Nc1nc(OC)cc(OC(F)(F)F)n1	141 to 143
O=S(=O)(c1ccccc1)N1CCCC1c1cccc(F)c1 (racemic)	96
Cc1nn2c(=O)c(CCCl)c(C)nc2s1	118
O=C(Nc1ccccc1)Oc1cc(N2C(=O)C3=C(CCCC3)C2=O)c(F)cc1Cl	149 to 151
O=C(O)c1ccc2c(c1)S(=O)(=O)c1cc(C(=O)O)ccc1O2	399 to 401
NC(=S)CCc1ccc([N+](=O)[O-])cc1	157 to 158
CC(O)c1ccc2cc(S(N)(=O)=O)sc2c1 (stereo unspecified)	134 to 135
O=c1c2c(Cl)cccc2nc(C(S)c2ncnc3[nH]cnc23)n1-c1ccccc1F (stereo unspecified)	244
NC(=O)C(F)(F)C(O)(Cn1cncn1)c1ccccc1 (stereo unspecified)	160 to 161
Nc1ccc(Cl)cc1C(=O)NCCCn1ccnc1	155 to 157
O=C(CCl)N1CCOc2ccccc21	107 to 108
COc1ccc(SCCCC(=O)O)cc1OC	78
CCOC(=O)C=Cc1cnc2ccccc2c1	86.5 to 88
Nc1ncnc2c1nc(OC(=O)OCc1ccccc1)n2Cc1ccccc1	> 300
CSc1c(-c2ccccc2)[nH]c2ccccc12	103
c1ccc(-n2c(Cn3ccnc3)nc3cccnc32)cc1	146 to 148
NS(=O)(=O)c1cccc(-c2noc(-c3cnn4c(C5CC5)cc(-c5ccc(C(F)(F)F)cc5)nc34)n2)c1	277
CC12CCC(=O)C=C1CCC1C3CC(OCCO)C(O)(C(=O)CO)C3(C)CC(O)C12F (stereo unspecified)	162 to 165
CCOC(=O)C=Cc1ccc(N)c(O)c1	134 to 135
CC(C)(C)NS(=O)(=O)c1c(C(=O)O)sc2ccccc12	180
CC(C)c1ccc(S(=O)(=O)NC(=O)Cc2ccc3c(c2)OCO3)cc1	262 to 263
O=[S@@]1CCCC[C@@H]1c1cccnc1	124 to 126
COC1(c2cc(F)cc(Sc3cnc4c(c3)OCC(=O)N4C)c2)CCOCC1	127 to 128
CN1CCN(C2=C3N=c4cc(Cl)ccc4=C3Oc3ccccc3N2C)CC1	187 to 188

Structure (SMILES)	melting point [°C]
CCCCCCCCCCCCCCCC(=O)NCCCC	74 to 76
Cn1c(=O)c(C#N)c(Cl)c2cc(Cl)ccc21	256
COc1nc2ccccc2cc1NC(=O)N1CCN(c2cccc(O)c2)CC1	190 to 191
O=C(O)[C@@H]1CCC(=O)N1Cc1ccccc1	91 to 93
Nc1nc(N)nc(N2CCC3(CC2)OCCO3)n1	209 to 211
N#Cc1c(I)c(C(=O)NCCO)c(I)c(C(=O)NCCO)c1I	300
O=C1C(c2ccccc2)=C(c2ccccc2)C(=O)N1Cc1ccccc1	123 to 124
CC1CCCCN1C(=O)c1nc(-c2ccccc2)nc2ccccc12 (stereo unspecified)	150
C[C@H]1C=CC2=C[C@@H](O)C[C@H](OC(=O)C(C)(C)Oc3ccc(F)cc3)[C@@H]2[C@H]1CC[C@@H]1C[C@@H](O)CC(=O)O1	142 to 145
COC(=O)c1cc(Cl)cc(I)c1O	143 to 145
CN1C(=S)[C@H](NC(=O)OCc2ccccc2)N=C(c2ccccc2)c2ccccc21	128 to 131
CC(O)=C(C(=O)OCc1ccccc1)N1C(=O)[C@@H](N2C(=O)c3ccccc3C2=O)[C@H]1COS(C)(=O)=O	61 to 65
CCCn1c(=O)c2[nH]c(C3CCCC3)nc2n(CCc2ccc(NC(=O)C3CCCC3)cc2)c1=O	> 270
CCC1c2ccc(C#N)n2-c2ccc(F)cc2N1S(=O)(=O)c1ccc(OC)c(C)c1 (stereo unspecified)	196 to 199
O=C(c1ccccc1)P1(=O)Oc2ccccc2-c2ccccc21 (stereo unspecified)	134 to 135
CC(C)(C)c1noc(-c2ncn3c2[C@@H]2CCCN2C(=O)c2c(Cl)cccc2-3)n1	222 to 224
COc1cc(S(C)(=O)=O)c(F)cc1OCCCl	85 to 87
CC(=O)c1ccc2c(c1)C=CC(=CCl)CO2	85 to 90
Fc1ccc2[nH]c3c(c2c1)Cc1ccccc1-3	225 to 227
COc1cccc(C=CC(=O)N2CCNCC2)c1	84 to 86
CC(C)CCCC(C)C1CCC2C3C(=O)C=C4CC(O)CCC4(C)C3CCC12C (stereo unspecified)	169 to 170
O=C1c2ccc(Nc3ccc(F)cc3F)cc2CCc2cc(OCCO)ccc21	138
C=C(CN(C)C)C(O)c1ncc2c(c1O)COC2C1CCCCC1 (stereo unspecified)	180 to 184

Further lines, results first:

melting point [°C]	Structure (SMILES)
148 to 153	Cc1ccc(N2CCN(Cc3ccc4c(c3)NC(=O)CO4)CC2)cc1C
151 to 152	Cc1cccc(-c2nc(-c3cccc(C)c3)nc(-c3cccc(C)c3)n2)c1
189 to 191	COc1cc(Nc2c(C#N)cnc3cc(-c4ccc(CN5CCN(C)CC5)cc4)sc23)cc(OC)c1OC
113 to 118	CCCc1c(OCCCOc2ccc(C(=O)CCC(=O)O)c(F)c2)ccc(C(C)=O)c1O
143 to 144	O=CN(O)C(CCCO)CS(=O)(=O)c1ccc(-c2ccc(F)cc2)cc1 (stereo unspecified)
119	CCCCCCCCOC1(OC(=O)C2CCCO2)C=CC(c2ccccc2)=CC1 (stereo unspecified)
103 to 105	C=CCSC(=NC(=O)OC)NC(=O)Nc1ccc(C)cc1
115 to 117	CCOC(=O)c1nn(-c2ccc(C)cc2)cc1-c1ccccc1
116 to 118	CCN[C@H]1CCC[C@H](Oc2ccc3[nH]ncc3c2)C1 (relative stereo)
156 to 158	COc1ccccc1N1CCN(CCCOc2ccc(-c3cn4cccnc4n3)cc2)CC1
158 to 160	Cc1ccc(-c2cc(C(F)(F)F)nn2-c2ccc(S(=O)(=O)NOC(C)C(=O)O)cc2)cc1 (single isomer, unassigned; (-))
46 to 50	CCCCCCCCCCCCCCOc1ccc(CCN(C(C)=O)c2cccc(Cc3nccs3)c2)cc1
174 to 176	CCCc1nc(C(O)C(C)(C)C)c(C(N)=O)n1Cc1ccc(-c2ccccc2-c2nnn[nH]2)cc1 (stereo unspecified)
151 to 153	O=C(NCCC(=O)N1CCCC1)c1ccc(-c2ccc3nnn(Cc4ccc5ncccc5c4)c3n2)cc1F
148 to 150	COCOc1cc(C=O)c2nc3cccc(OCOC)c3nc2c1
228	Cc1[nH]c(=S)n(Nc2ccc(F)cc2)c1-c1ccccc1
168 to 170	CCCOc1ccc(CCCOc2ccc3c(c2)C=C(C(=O)O)CCS3(=O)=O)cc1
87	Cc1ccc(-c2nc(CCCCCCOC(C)(C)c3nnn[nH]3)c(C)o2)cc1
154	CCCNC(=O)c1nnc(NCc2cc(Br)ccc2OCc2ccccc2)s1
137 to 138	COc1ccc(C(=O)c2cc3cccc(Br)c3o2)cc1OC
165	Cc1cnc2n1-c1cc(Cl)c(Cl)cc1N=C(c1ccc(-n3c(C)nnc3C)cc1)C2
110	COc1cc2cc(C(=O)OCc3ccccc3)n(CC(=O)OC(C)(C)C)c2cn1
95 to 95.8	CCCCCS(=O)(=O)NC(=O)CCc1ccc(OCCCOCCOC)cc1Oc1ncc(C(F)(F)F)cc1Cl
143 to 145	CSc1ccc(C(=N)Nc2ccc(C)cc2)cc1
